How the values were obtained:
[1] = biological target: T1, Zebrafish VDRβ (Danio rerio, UniProt Q1L673); assay: Mammalian 2-hybrid assay (VDR-coregulator interaction, HepG2); format: cell-based; design: expressed in transfected cells; host or cells: HepG2; conditions: 100 μM LCA
T1 sequence (Q1L673 1-422): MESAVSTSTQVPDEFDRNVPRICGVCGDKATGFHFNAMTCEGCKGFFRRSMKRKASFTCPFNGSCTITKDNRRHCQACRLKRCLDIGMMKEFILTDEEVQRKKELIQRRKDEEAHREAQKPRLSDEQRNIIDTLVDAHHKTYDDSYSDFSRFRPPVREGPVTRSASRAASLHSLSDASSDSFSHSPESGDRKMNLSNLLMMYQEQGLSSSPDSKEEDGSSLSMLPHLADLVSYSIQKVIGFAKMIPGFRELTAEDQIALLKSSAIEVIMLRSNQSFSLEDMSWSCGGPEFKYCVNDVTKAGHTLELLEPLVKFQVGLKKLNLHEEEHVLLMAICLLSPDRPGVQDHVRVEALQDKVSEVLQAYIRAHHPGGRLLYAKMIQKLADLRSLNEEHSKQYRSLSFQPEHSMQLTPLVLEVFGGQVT
Excerpt: Prey constructs included full-length VDRs fused to the herpes simplex VP16 activation domain (pVP16-VDR). Bait constructs consisted of either full-length wild-type human RXR (pM-RXRWT), a truncated human RXR mutant (pM-RXRAF2), or the defined NR box of each member of the SRC/p160 family (pM-SRC1_241-386, pM-GRIP1_479-767, or pM-ACTR392-1005) fused to the yeast Gal4 DNA-binding domain. Reporters included the Gal4 luciferase reporter (5xGal4-TATA-Luc) and pRL-CMV as an internal luciferase control.
HepG2 cells were seeded into 96-well tissue culture plates as described above and transfected with Lipofectamine 2000 the following day. Each well received 33.6 ng pVP16-VDR, 33.6 ng pM-coregulator (where indicated), 126.6 ng 5XGal4-TATA-Luc, and 3 ng pRL-CMV. […] Positive controls were treated with 1,25D3 and vehicle controls were treated with ethanol. Luciferase activity was measured 24 hours post-exposure using the Dual-Glo Luciferase Assay System described above. Raw luciferase data were normalized to the pRL-CMV luciferase control. VDR-coregulator response was normalized to the pVP16-VDR in the absence of bait constructs. Results were analyzed using a two-way ANOVA followed by Bonferroni’s multiple comparisons test in Prism (GraphPad Inc, San Diego, CA). All experiments were replicated 3 times and conducted as groups of 4 replicate wells.

[2] = biological target: all VDR orthologs/paralogs tested; assay: Competitive ligand binding assays, all receptors together; conditions: range over all eight VDR orthologs/paralogs
Experimental: Recombinant VDR and human RXRWT lysates were prepared from transfected COS7 cells (American Type Culture Collection #CRL-1651) as described in detail previously [32, 33]. Lysates were diluted 10-fold in ice-cold assay buffer (10 mM Tris HCl, 150 mM KCl, 1 mM EDTA, 0.3 mM ZnCl2, 5 mM DTT, and 1x protease inhibitor cocktail (100 μM AEBSF, 80 nM aprotinin, 5 μM bestatin, 1.5 μM E-64 (for cysteine proteases), 2 μM leupeptin, 1 μM pepstatin A), pH 7.5). […] Reactions were shaken to mix and incubated for 18 hours at 4°C. Bound and free ligand were separated with the addition of 80 μL of ice-cold separation buffer (2.5% (w/v) activated charcoal, 0.5% (w/v) dextran, 100 mM Na2HPO4, 39 mM NaH2PO4, 150 mM NaCl, 15 mM NaN3, 10% gelatin, pH 7.0), and incubated at 4°C for 15 minutes with shaking every 5 minutes. Reactions were centrifuged at 5,000 x g for 5 minutes at 4°C, and 200 μL of the supernatant containing the VDR-bound ligands was removed for scintillation counting.
Total binding was determined using lysate from cells transfected with VDR, and nonspecific binding was determined using lysate from cells transfected with the empty pSG5 vector. Specific binding was determined by subtracting non-specific binding counts from the total binding counts.

[3] = biological target: T2, Human VDR (Homo sapiens, UniProt P11473); assay: Transient transactivation assay (XREM-Luc, HepG2); format: cell-based; conditions: 100 μM LCA
T2 sequence (P11473 1-427): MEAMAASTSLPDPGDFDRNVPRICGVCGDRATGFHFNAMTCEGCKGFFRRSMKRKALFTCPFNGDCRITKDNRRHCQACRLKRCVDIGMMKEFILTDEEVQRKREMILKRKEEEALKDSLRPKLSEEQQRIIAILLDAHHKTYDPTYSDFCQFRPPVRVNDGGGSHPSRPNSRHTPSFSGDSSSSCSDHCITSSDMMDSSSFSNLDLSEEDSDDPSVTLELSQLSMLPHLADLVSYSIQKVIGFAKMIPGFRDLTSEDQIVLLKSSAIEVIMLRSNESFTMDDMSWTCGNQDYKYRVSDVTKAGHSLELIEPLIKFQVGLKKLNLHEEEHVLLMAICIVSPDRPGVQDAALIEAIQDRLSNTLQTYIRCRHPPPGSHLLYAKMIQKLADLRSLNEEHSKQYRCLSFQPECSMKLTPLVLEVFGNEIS
Experimental: HepG2 cells (American Type Culture Collection #HB-8065) were cultured in T75 flasks with vented caps (Corning Life Sciences, Corning, NY) using Minimum Essential Medium (MEM) with phenol red supplemented with 10% fetal bovine serum, 1 mM sodium pyruvate, and 1X MEM non-essential amino acids. Cells were maintained following standard protocols in a 5% CO2 incubator set at 37°C, and split when 80–90% confluent.
For the transient transactivation assays, HepG2 cells were seeded in 96-well tissue culture plates at a density of 2.5x10^4 cells per well in complete phenol red-free MEM, and allowed to recover overnight. Transfections were performed the following day using Lipofectamine 2000 (Life Technologies, Grand Island, NY) as described previously. For functional comparisons, 89.7 ng/well of full-length pSG5-VDR was co-transfected with 19.2 ng/well human XREM-Luc reporter and 4.5 ng/well of pRL-CMV as an internal luciferase control. Coregulator studies included the addition of 18.3 ng/well of human coregulators (pCDNA-RXRWT, pCDNA-RXRAF2, pSG5-SRC1, pSG5-GRIP1 or pSG5-ACTR) where indicated. […] Controls include 120 nM 1,25D3 as a positive control, and ethanol as a vehicle control. Twenty-four hours post-exposure cells were tested for luciferase activity using the Dual-Glo Luciferase Assay System (Promega Corporation, Madison, WI) according to the manufacturer’s protocols. Luciferase data were first normalized to the pRL-CMV internal luciferase control. […] To calculate the impact of coregulators on VDR transactivation, VDR response in the presence of coregulators was normalized to VDR alone. All experiments were repeated 3 times and conducted as groups of 4 replicate wells. VDR response in the absence of coregulators was analyzed using a 1-way ANOVA followed by Dunnett’s multiple comparisons test. To examine the effects of different coregulators on VDR activation, data were analyzed using a 2-way ANOVA followed by Bonferroni’s multiple comparisons test in GraphPad Prism (GraphPad Inc, San Diego, CA).

C[C@H](CCC(=O)O)[C@H]1CC[C@H]2[C@@H]3CC[C@@H]4C[C@H](O)CC[C@]4(C)[C@H]3CC[C@]12C [LCA, 5β-cholanic acid-3α-ol]
VDR-RXRWT interaction (heterodimerization) ([1]; bait human RXRWT, presence and absence of SRC1): not observed
VDR-SRC1 interaction ([1]; cotransfection of RXRWT): strong VDR-SRC1 interactions
Ki [2]: 4.2 to 9.5 µM
Effect of exogenous human RXRWT on VDR transactivation ([3]; co-transfected human RXRWT, vs VDR alone): significantly enhanced transactivation
Effect of RXRWT+SRC1 or RXRWT+GRIP1 on VDR transactivation ([3]; compared to either coregulator individually): significantly enhanced VDR transactivation

Source: paper PMC5152921, “Evolutionary and Functional Diversification of the Vitamin D Receptor-Lithocholic Acid Partnership” (PLoS ONE, 2016)
